Where two headings read alike, the source gives them in different places. A value given as a limit tells only on which side of the number the result lay.

The target in one assay is Bcl-2 protein (histag-Bcl-2, UniProtKB P10415) (Homo sapiens (Human), UniProt P10415). The assay can be described thus: Inhibition of Bcl-2 by the fluorescence polarisation technique. The assay is classed as binding. An excerpt:
For partial inhibitors, the percentage fluorescence polarisation inhibition for a given concentration of the test compound is indicated.

Assay [1] concerns RS4; 11 leukaemia cell line. The assay can be described thus: In vitro cytotoxicity, Microculture Tetrazolium Assay (MTT). The assay is classed as cell-based. The following applies: Homo sapiens, 11 cells exposed for 48 hours. On the procedure: The cytotoxicity studies were carried out on the RS4; 11 leukaemia cell line and on H146 small Cell Lung Carcinoma cell line. The cells are distributed onto microplates and exposed to the test compounds for 48 hours. The cell viability is then quantified by a colorimetric assay, the Microculture Tetrazolium Assay (Cancer Res., 1987, 47, 939-942).

Setting [2] is: fluorescence polarisation test, incubation for 2 hours, read-out: IC50 (nM) Bcl-2 FP.

Bcl-2 protein, sequence (P10415 whole entry): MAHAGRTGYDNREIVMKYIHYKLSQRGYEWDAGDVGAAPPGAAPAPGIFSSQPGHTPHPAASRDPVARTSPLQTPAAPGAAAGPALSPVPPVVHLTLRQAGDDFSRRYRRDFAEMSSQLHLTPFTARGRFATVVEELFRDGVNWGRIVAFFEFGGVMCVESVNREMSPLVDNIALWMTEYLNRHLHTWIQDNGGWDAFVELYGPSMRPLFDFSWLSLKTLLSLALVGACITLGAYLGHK

One may read the IC50 as the midpoint of a concentration-inhibition curve. Regarding `Cc1c(C(=O)N(C)c2ccc(O)cc2)cc(-c2cc3c(cc2C(=O)N2Cc4ccccc4C[C@H]2CN2CCOCC2)CN(C(=O)Oc2cnc4[nH]ccc4c2)CC3)n1C` [Example 579, 1H-Pyrrolo[2,3-b]pyridin-5-yl 6-{4-[(4-hydroxyphenyl)(methyl)carbamoyl]-1,5-dimethyl-1H-pyrrol-2-yl}-7-[(3S)-3-(morpholin-4-ylmethyl)-1,2,3,4-tetrahydroisoquinoline-2-carbonyl]-1,2,3,4-tetrahydroisoquinoline-2-carboxylate], the IC50 against Bcl-2 protein amounted to 4.4 nM; in assay [1], 17 nM.
Regarding `Cc1ccc(OC(=O)N2CCc3cc(-c4cc(C(=O)N(C)c5ccccc5)c(C)n4C)c(C(=O)N4Cc5ccccc5C[C@H]4CN4CCOCC4)cc3C2)cc1` [Example 591, 4-Methylphenyl 6-{1,5-dimethyl-4-[methyl(phenyl)carbamoyl]-1H-pyrrol-2-yl}-7-[(3S)-3-(morpholin-4-ylmethyl)-1,2,3,4-tetrahydroisoquinoline-2-carbonyl]-1,2,3,4-tetrahydroisoquinoline-2-carboxylate], the values for the 50% inhibitory concentration (IC50) (at Bcl-2 protein (setting [2]); in assay [1]) were 2.5 nM and 7 nM, respectively.
For `Cc1c(C(=O)N(C)c2ccccc2)cc(-c2cc3c(cc2C(=O)N2Cc4ccccc4C[C@H]2CN2CCOCC2)CN(C(=O)Oc2ccc4cc[nH]c4c2)CC3)n1C` [Example 629, 1H-Indol-6-yl 6-{1,5-dimethyl-4-[methyl(phenyl)carbamoyl]-1H-pyrrol-2-yl}-7-[(3S)-3-(morpholin-4-ylmethyl)-1,2,3,4-tetrahydroisoquinoline-2-carbonyl]-1,2,3,4-tetrahydroisoquinoline-2-carboxylate], the results for the IC50 (at Bcl-2 protein (setting [2]); in assay [1]) were 7.2 nM and 9 nM, respectively.
With `Cc1c(C(=O)N(C)c2ccccc2)cc(-c2cc3c(cc2C(=O)N2Cc4ccccc4C[C@H]2CN2CCOCC2)CN(C(=O)Oc2ccc4[nH]ccc4c2)CC3)n1C` [Example 631, 1H-Indol-5-yl 6-{1,5-dimethyl-4-[methyl(phenyl)carbamoyl]-1H-pyrrol-2-yl}-7-[(3S)-3-(morpholin-4-ylmethyl)-1,2,3,4-tetrahydroisoquinoline-2-carbonyl]-1,2,3,4-tetrahydroisoquinoline-2-carboxylate], the half-maximal inhibitory concentration (IC50) is 5.2 nM at Bcl-2 protein (setting [2]) and 8.2 nM in assay [1].
For `Cc1c(C(=O)N(C)c2ccccc2)cc(-c2cc3c(cc2C(=O)N2Cc4ccccc4C[C@H]2CN2CCOCC2)CN(C(=O)Oc2cnc4[nH]ccc4c2)CC3)n1C` [Example 633, 1H-Pyrrolo[2,3-b]pyridin-5-yl 6-{1,5-dimethyl-4-[methyl(phenyl)carbamoyl]-1H-pyrrol-2-yl}-7-[(3S)-3-(morpholin-4-ylmethyl)-1,2,3,4-tetrahydroisoquinoline-2-carbonyl]-1,2,3,4-tetrahydroisoquinoline-2-carboxylate], the figures for the half-maximal inhibitory concentration (IC50) (at Bcl-2 protein (setting [2]); in assay [1]) were 6.1 nM and 22 nM, respectively.
On the same counts, the results for `Cc1c(C(=O)N(C)c2ccccc2)cc(-c2cc3c(cc2C(=O)N2Cc4ccccc4C[C@H]2CN2CCOCC2)CN(C(=O)Oc2cnc4c(ccn4C)c2)CC3)n1C` [Example 634, 1-Methyl-1H-pyrrolo[2,3-b]pyridin-5-yl 6-{1,5-dimethyl-4-[methyl(phenyl)carbamoyl]-1H-pyrrol-2-yl}-7-[(3S)-3-(morpholin-4-ylmethyl)-1,2,3,4-tetrahydroisoquinoline-2-carbonyl]-1,2,3,4-tetrahydroisoquinoline-2-carboxylate] are 6.9 nM and 21 nM.
Take `Cc1c(C(=O)N(C)c2ccccc2)cc(-c2cc3c(cc2C(=O)N2Cc4ccccc4C[C@H]2C)CN(C(=O)Oc2cnc4[nH]ccc4c2)CC3)n1C` [Example 636, 1H-Pyrrolo[2,3-b]pyridin-5-yl 6-{1,5-dimethyl-4-[methyl(phenyl)carbamoyl]-1H-pyrrol-2-yl}-7-[(3R)-3-methyl-1,2,3,4-tetrahydroisoquinoline-2-carbonyl]-1,2,3,4-tetrahydroisoquinoline-2-carboxylate]: the IC50 at Bcl-2 protein (setting [2]) is 11 nM; in assay [1] it was 34 nM.
`Cc1c(C(=O)N(C)c2ccc(O)cc2)cc(-c2cc3c(cc2C(=O)N2Cc4ccccc4C[C@H]2CN2CCOCC2)CN(C(=O)Oc2cccc(C(=O)O)c2)CC3)n1C` [Example 709, 3-(6-{4-[(4-Hydroxyphenyl)(methyl)carbamoyl]-1,5-dimethyl-1H-pyrrol-2-yl}-7-[(3S)-3-(morpholin-4-ylmethyl)-1,2,3,4-tetrahydroisoquinoline-2-carbonyl]-1,2,3,4-tetrahydroisoquinoline-2-carbonyloxy)benzoic acid]: the figures for the IC50 (on Bcl-2 protein (setting [2]); in assay [1]) were 4.8 nM and more than 150 nM, respectively.
For the molecule `Cc1c(C(=O)N(C)c2ccc(O)cc2)cc(-c2cc3c(cc2C(=O)N2Cc4ccccc4C[C@H]2C)CN(C(=O)Oc2cccc(C(=O)O)c2)CC3)n1C` [Example 715, 3-(6-{4-[(4-Hydroxyphenyl)(methyl)carbamoyl]-1,5-dimethyl-1H-pyrrol-2-yl}-7-[(3R)-3-methyl-1,2,3,4-tetrahydroisoquinoline-2-carbonyl]-1,2,3,4-tetrahydroisoquinoline-2-carbonyloxy)benzoic acid], the half-inhibitory concentration (IC50) on Bcl-2 protein (setting [2]) is 2.2 nM; in assay [1] it was more than 150 nM.
For `Cc1c(C(=O)N(C)c2ccc(O)cc2)cc(-c2cc3c(cc2C(=O)N2Cc4ccccc4C[C@H]2CN2CCOCC2)CN(C(=O)Oc2ccc(C(=O)O)cc2)CC3)n1C` [Example 721, 4-(6-{4-[(4-Hydroxyphenyl)(methyl)carbamoyl]-1,5-dimethyl-1H-pyrrol-2-yl}-7-[(3S)-3-(morpholin-4-ylmethyl)-1,2,3,4-tetrahydroisoquinoline-2-carbonyl]-1,2,3,4-tetrahydroisoquinoline-2-carbonyloxy)benzoic acid], the half-maximal inhibitory concentration (IC50) at Bcl-2 protein (setting [2]) is 4.9 nM; in assay [1] it was more than 150 nM.
For the molecule `Cc1c(C(=O)N(C)c2ccc(O)cc2)cc(-c2cc3c(cc2C(=O)N2Cc4ccccc4C[C@H]2CN2CCN(C)CC2)CN(C(=O)Oc2cccc(C(=O)O)c2)CC3)n1C` [Example 733, 3-(6-{4-[(4-Hydroxyphenyl)(methyl)carbamoyl]-1,5-dimethyl-1H-pyrrol-2-yl}-7-[(3S)-3-[(4-methylpiperazin-1-yl)methyl]-1,2,3,4-tetrahydroisoquinoline-2-carbonyl]-1,2,3,4-tetrahydroisoquinoline-2-carbonyloxy)benzoic acid], the values for the half-maximal inhibitory concentration (IC50) (on Bcl-2 protein (setting [2]); in assay [1]) were 1.5 nM and more than 150 nM, respectively.
Consider `Cc1c(C(=O)N(C)c2ccccc2)cc(-c2cc3c(cc2C(=O)N2Cc4ccccc4C[C@H]2CN2CCN(C)CC2)CN(C(=O)Oc2cccc(C(=O)O)c2)CC3)n1C` [Example 735, 3-(6-{1,5-Dimethyl-4-[methyl(phenyl)carbamoyl]-1H-pyrrol-2-yl}-7-[(3S)-3-[(4-methylpiperazin-1-yl)methyl]-1,2,3,4-tetrahydroisoquinoline-2-carbonyl]-1,2,3,4-tetrahydroisoquinoline-2-carbonyloxy)benzoic acid], for which the 50% inhibitory concentration (IC50) is 12 nM on Bcl-2 protein (setting [2]) and more than 150 nM in assay [1].
For `Cc1c(C(=O)N(C)c2ccc(O)cc2)cc(-c2cc3c(cc2C(=O)N2Cc4ccccc4C[C@H]2C)CN(C(=O)Oc2ccccc2CCC(=O)N(C)C)CC3)n1C` [Example 775, 2-[2-(Dimethylcarbamoyl)ethyl]phenyl 6-{4-[(4-hydroxyphenyl)(methyl)carbamoyl]-1,5-dimethyl-1H-pyrrol-2-yl}-7-[(3R)-3-methyl-1,2,3,4-tetrahydroisoquinoline-2-carbonyl]-1,2,3,4-tetrahydroisoquinoline-2-carboxylate], the values for the half-inhibitory concentration (IC50) (at Bcl-2 protein (setting [2]); in assay [1]) were 2.4 nM and 6.3 nM, respectively.

For the origin of these results see US9809574B2, “Isoindoline or isoquinoline compounds, a process for their preparation and pharmaceutical compositions containing them” (LES LABORATOIRES SERVIER, priority 2013, dated 2017).
